Values of other authors, collected in patent US11005050B2, “Metal complexes” (Merck Patent GmbH, priority 2014, dated 2021).

Details: prior-art statement; for example in aromatic hydrocarbons or chlorobenzene

## c1cnc2c(c1)ccc1ccc[c]([Ir]([c]3cccc4ccc5cccnc5c34)[c]3cccc4ccc5cccnc5c34)c12 [tris(benzo[h]quinoline)iridium(III)]
  solubility in common organic solvents: virtually insoluble
